# Tests used:
# [1] = tested on: mouse intestinal epithelial cells; assay: Effect of short chain fatty acids on proliferation and differentiation on planar crypt arrays; type: cell-based; conditions: day 3-4 (DM/EM); for ALP activity relative to the control / normalized area of EdU+ cells compared to control without short chain fatty acid: 24 mM acetate, 6 mM propionate or 1 mM butyrate in DM luminal medium; for ALP activity relative to the control: ALP+ area normalized to Hoechst 33342 area; for normalized area of EdU+ cells compared to control without short chain fatty acid: EdU+ area normalized to Hoechst 33342 area
# Method: EM was replaced with fresh EM every 2 days. The cells were sub-cultured every 3-5 days by degrading collagen with collagenase and dissociating the cells with 0.5 mM EDTA into clumps of cells. […] When placing cells onto the surface of the microdevice, the cell suspension was diluted 1 to 2 in EM and overlaid onto the microdevice surface. The cells were cultured for 2 days with EM placed into the luminal and basal reservoirs of the Transwell cassette. On day 2, the luminal and basal media were changed as described in Table 3, below, and the cells incubated for a day. On day 3, the luminal and basal media were replaced with fresh media (identical to that from day 2 replacement) and the cells incubated for another day. In some experiments, the medium in the luminal compartment was replaced differentiation medium (DM, see Table 2) which is similar to EM but lacking in key growth factors required to support intestinal stem cells.
# Cells in the S phase of the cell cycle were incubated with a pulse of 5-ethynyl-2′-deoxyuridine (EdU) pulse following the manufacturers' protocols (Click-iT EdU Alexa Fluor 647 Imaging kit, C10340, Thermo Fisher Scientific, Waltham, Massachusetts, United States of America). EdU is a nucleotide analog incorporated into DNA as it is replicated in S phase. In brief, EdU (10 μM) was added to the luminal and basal media and the cells were incubated for 3 h at 37° C. The cells then were washed with PBS and fixed with 4% paraformaldehyde in PBS for 15 min and permeabilized with 0.5% Triton-X for 20 min at 25° C. EdU incorporated into cellular DNA was visualized by reaction with Alexa 647 via click chemistry following the manufacturer's protocol (Click-iT EdU Alexa Fluor 647 Imaging kit, C10340, Thermo Fisher Scientific, Waltham, Massachusetts, United States of America).
# Cell monolayers were assayed for alkaline phosphatase (ALP) activity on day 4 of culture by incubation with ALP substrate mixture (Vector Red AP substrate kit, SK-5100, Vector Laboratories Inc., Burlingame, California, United States of America) in Tris buffer (pH 8.4) for 30 min at 37° C. Then cells were washed with PBS, fixed and permeabilized as described above. To label cell DNA, Hoechst 33342 (2 μg/mL, B2261, Sigma Aldrich, St. Louis, Missouri, United States of America) was incubated with cells (1 h, 25° C.).
# The […] ® insert (Corning, Inc., Corning, New York, United States of America) with cell layer from the microdevice was placed into a 12-well plate under PBS and imaged using a FLUOVIEW® FV3000® confocal microscope (Olympus Corporation, Tokyo, Japan) confocal microscope (10×, objective, numerical aperture of 0.4). Alexa 647, Vector-Red-ALP, and Hoechst 33342 were excited with a 640, 561, and 405 nm laser, respectively and the fluorescence emission was collected at 650-750 nm, 570-590 nm, and 430-470 nm, respectively. The images were analyzed with the Fiji software package. […] For all experiments, the numbers of sample sizes were estimated using a statistical power analysis based on the data from Wang et al. (Cellular and Molecular Gastroenterology and Hepatology, 2017, 4, 165-182) measuring EdU+ and ALP activities under varying conditions (α=0.05, β=0.85) using G*Power. […] A one-way ANOVA analysis was used for all statistical analyses of data obtained from the fluorescence microscopy images.
# [2] = tested on: intestinal tumor cell lines; conditions: cited from earlier work
SMILES,ALP activity relative to the control [1],normalized area of EdU+ cells compared to control without short chain fatty acid [1],"decrease of the number of Hoechst 33342+ cells per crypt ([1]; 1 mM butyrate in DM luminal medium, vs control crypts, p<0.001)",proliferation in intestinal tumor cell lines [2]
CC(=O)O [acetate],significantly decreased,significantly increased,–,–
CCCC(=O)O [butyrate],–,–,about 17%,–
CCC(=O)O [propionate],significantly increased,significantly decreased,–,suppress proliferation

# From patent US12195706B2, “Formation of arrays of planar intestinal crypts possessing a stem/proliferative cell compartment and differentiated cell zone” (THE UNIVERSITY OF NORTH CAROLINA AT CHAPEL HILL, priority 2018, dated 2025)
